From ChEMBL document CHEMBL3046832, “Synthesis of some sulfonamides, disubstituted sulfonylureas or thioureas and some structurally related variants. A class of promising antitumor agents” (2007)

How the values were obtained:
Assay type in all cases: functional
[1] = test system: OVCAR-4; test: Cytotoxicity against Homo sapiens (human) OVCAR4 cells after 48 hr by SRB assay; settings: OVCAR-4, 48 h
[2] = test system: ACHN; test: Cytotoxicity against Homo sapiens (human) ACHN cells after 48 hr by SRB assay
[3] = Cytotoxicity against Homo sapiens (human) prostate cancer cells after 48 hr by SRB assay; settings: Cancer cell lines
[4] = test system: MCF7; test: Cytotoxicity against Homo sapiens (human) MCF7 cells after 48 hr by SRB assay; settings: MCF7, 48 h
[5] = test system: U-251; test: Cytotoxicity against Homo sapiens (human) U251 cells after 48 hr by SRB assay; settings: U-251, 48 h
[6] = test system: SW-620; test: Cytotoxicity against Homo sapiens (human) SW620 cells after 48 hr by SRB assay; settings: SW-620, 48 h
[7] = test system: MDA-MB-435; test: Cytotoxicity against Homo sapiens (human) MDA-MB-435 cells after 48 hr by SRB assay; settings: MDA-MB-435, 48 h
[8] = test system: HCT-15; test: Cytotoxicity against Homo sapiens (human) HCT15 cells after 48 hr by SRB assay; settings: HCT-15, 48 h
[9] = test system: SF-539; test: Cytotoxicity against Homo sapiens (human) SF539 cells after 48 hr by SRB assay; settings: SF-539, 48 h
[10] = Cytotoxicity against Homo sapiens (human) melanoma cells after 48 hr by SRB assay; settings: Melanoma cell
[11] = test system: MCF7; test: Cytotoxicity against Homo sapiens (human) MCF7 cells assessed as cellular growth after 48 hr by Alamar blue assay; design: concentration or dose not given beside the values
[12] = Cytotoxicity against Homo sapiens (human) non-small cell lung cancer cells after 48 hr by SRB assay; settings: Cancer cell lines
[13] = test system: SNB-19; test: Cytotoxicity against Homo sapiens (human) SNB19 cells after 48 hr by SRB assay; settings: SNB-19, 48 h
[14] = test system: IGROV-1; test: Cytotoxicity against Homo sapiens (human) IGROV1 cells after 48 hr by SRB assay; settings: IGROV-1, 48 h
[15] = Cytotoxicity against Homo sapiens (human) leukemia cells after 48 hr by SRB assay; settings: Leukemia cell
[16] = test system: CAKI-1; test: Cytotoxicity against Homo sapiens (human) Caki1 cells after 48 hr by SRB assay; settings: CAKI-1, 48 h
[17] = test system: T47D; test: Cytotoxicity against Homo sapiens (human) T47D cells after 48 hr by SRB assay
[18] = test system: SF-268; test: Cytotoxicity against Homo sapiens (human) SF268 cells assessed as cellular growth after 48 hr by Alamar blue assay; design: concentration or dose not given beside the values
[19] = test system: SK-OV-3; test: Cytotoxicity against Homo sapiens (human) SKOV3 cells after 48 hr by SRB assay; settings: SK-OV-3, 48 h
[20] = test system: MDA-MB-231; test: Cytotoxicity against Homo sapiens (human) MDA-MB-231 cells after 48 hr by SRB assay; settings: MDA-MB-231, 48 h
[21] = test system: SK-MEL-2; test: Cytotoxicity against Homo sapiens (human) SK-MEL-2 cells after 48 hr by SRB assay; settings: SK-MEL-2, 48 h
[22] = test system: OVCAR-3; test: Cytotoxicity against Homo sapiens (human) OVCAR3 cells after 48 hr by SRB assay; settings: OVCAR-3, 48 h
[23] = Cytotoxicity against Homo sapiens (human) ovarian cancer cells after 48 hr by SRB assay; settings: Cancer cell lines
[24] = Cytotoxicity against Homo sapiens (human) NCI-ADR-RES cells after 48 hr by SRB assay
[25] = test system: SK-MEL-28; test: Cytotoxicity against Homo sapiens (human) SK-MEL-28 cells after 48 hr by SRB assay; settings: SK-MEL-28, 48 h
[26] = Cytotoxicity against Homo sapiens (human) NCI-H322 cells after 48 hr by SRB assay; settings: NCI-H322, 48 h
[27] = Cytotoxicity against Homo sapiens (human) CNS cancer cells after 48 hr by SRB assay; settings: Cancer cell lines
[28] = test system: RXF 393; test: Cytotoxicity against Homo sapiens (human) RXF393 cells after 48 hr by SRB assay; settings: RXF 393, 48 h
[29] = Cytotoxicity against Homo sapiens (human) breast cancer cells after 48 hr by SRB assay; settings: Cancer cell lines
[30] = test system: 786-0; test: Cytotoxicity against Homo sapiens (human) 786-0 cells after 48 hr by SRB assay; settings: 786-0, 48 h
[31] = test system: EKVX; test: Cytotoxicity against Homo sapiens (human) EKVX cells after 48 hr by SRB assay
[32] = test system: SK-MEL-5; test: Cytotoxicity against Homo sapiens (human) SK-MEL-5 cells after 48 hr by SRB assay; settings: SK-MEL-5, 48 h
[33] = test system: NCI-H460; test: Cytotoxicity against Homo sapiens (human) NCI-H460 cells after 48 hr by SRB assay; settings: NCI-H460, 48 h
[34] = test system: BT-549; test: Cytotoxicity against Homo sapiens (human) BT549 cells after 48 hr by SRB assay; settings: BT-549, 48 h
[35] = test system: DU-145; test: Cytotoxicity against Homo sapiens (human) DU145 cells after 48 hr by SRB assay; settings: DU-145, 48 h
[36] = test system: RPMI-8226; test: Cytotoxicity against Homo sapiens (human) RPMI8226 cells after 48 hr by SRB assay; settings: RPMI-8226, 48 h
[37] = test system: M14; test: Cytotoxicity against Homo sapiens (human) M14 cells after 48 hr by SRB assay; settings: M14, 48 h
[38] = test system: UO-31; test: Cytotoxicity against Homo sapiens (human) UO31 cells after 48 hr by SRB assay; settings: UO-31, 48 h
[39] = test system: NCI-H522; test: Cytotoxicity against Homo sapiens (human) NCI-H522 cells after 48 hr by SRB assay; settings: NCI-H522, 48 h
[40] = test system: KM12; test: Cytotoxicity against Homo sapiens (human) KM12 cells after 48 hr by SRB assay; settings: KM12, 48 h
[41] = test system: HT-29; test: Cytotoxicity against Homo sapiens (human) HT-29 cells after 48 hr by SRB assay; settings: HT-29, 48 h
[42] = test system: COLO 205; test: Cytotoxicity against Homo sapiens (human) COLO205 cells after 48 hr by SRB assay; settings: COLO 205, 48 h
[43] = test system: PC-3; test: Cytotoxicity against Homo sapiens (human) PC3 cells after 48 hr by SRB assay; settings: PC-3, 48 h
[44] = test system: UACC-62; test: Cytotoxicity against Homo sapiens (human) UACC62 cells after 48 hr by SRB assay; settings: UACC-62, 48 h

O=C(NC(=S)NS(=O)(=O)c1ccc(N2N=C3c4ccccc4CC3C2c2cccs2)cc1)c1ccccc1 (stereo unspecified)
GI50 [1]: 87.6 µM
GI50 [2]: > 100 µM
GI50 [3]: 29 µM
TGI [3]: > 100 µM
GI50 [4]: > 100 µM
GI50 [5]: 20.1 µM
GI50 [6]: 34.8 µM
GI50 [7]: 21.7 µM
GI50 [8]: 30.2 µM
GI50 [9]: 27.9 µM
GI50 [10]: 34.1 µM
TGI [10]: 67.7 µM
Activity [11]: <=32%
GI50 [12]: 37.9 µM
TGI [12]: 78.9 µM
GI50 [13]: 46.3 µM
GI50 [14]: 3.14 µM
GI50 [15]: 27.9 µM
TGI [15]: 77.2 µM
GI50 [16]: 26.1 µM
GI50 [17]: 69.6 µM
Activity [18]: <=32%
GI50 [19]: 90.8 µM
GI50 [20]: 22.5 µM
GI50 [21]: 44 µM
GI50 [22]: 30.6 µM
GI50 [23]: 41.9 µM
TGI [23]: 95.3 µM
GI50 [24]: 18.8 µM
GI50 [25]: 84 µM
GI50 [26]: 14.2 µM
GI50 [27]: 53.3 µM
TGI [27]: 90.9 µM
GI50 [28]: 54 µM
GI50 [29]: 38.6 µM
TGI [29]: 83.7 µM
GI50 [30]: 27.9 µM
GI50 [31]: 19.6 µM
GI50 [32]: 16.9 µM
GI50 [33]: > 100 µM
GI50 [34]: 21.6 µM
GI50 [35]: 28.3 µM
GI50 [36]: 29.7 µM
GI50 [37]: 21.2 µM
GI50 [38]: 41.1 µM
GI50 [39]: 20.5 µM
GI50 [40]: 28.2 µM
GI50 [41]: 46 µM
GI50 [42]: 38.4 µM
GI50 [43]: 29.7 µM
GI50 [44]: 14.6 µM
